{"source": "patent US6355799B1", "about": "“Substituted benzene compounds, process for their preparation, and herbicidal and defoliant compositions containing them” (ISK Americas Incorporated, priority 1997, dated 2002)", "type_in_all_cases": "in vivo", "key": {"[1]": {"test_system": "sicklepod (Cassia obtusifolia, CASOB)", "assay": "Pre-emerge test, greenhouse herbicide activity screening", "details": "rated 14 days after application, 0 = no damage, 100 = complete death", "method_in_brief": "(§1)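 Visual ratings on a 0-100 scale (0 no damage, 100 all plants dead) were taken at 14 days after treatment. Rates of 15-1000 g ai/ha in acetone, 187 l/ha, were sprayed onto soil one day after planting (pre-emerge) or onto 2-3 leaf plants with 0.25% v/v surfactant (post-emerge).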"}, "[2]": {"test_system": "lambsquarters (Chenopodium album, CHEAL)", "assay": "Pre-emerge test, greenhouse herbicide activity screening", "details": "rated 14 days after application, 0 = no damage, 100 = complete death", "method_in_brief": "as §1"}, "[3]": {"test_system": "barnyardgrass (Echinochloa crus-galli, ECHCG)", "assay": "Pre-emerge test, greenhouse herbicide activity screening", "details": "rated 14 days after application, 0 = no damage, 100 = complete death", "method_in_brief": "as §1"}, "[4]": {"test_system": "johnsongrass (Sorghum halepense, SORHA)", "assay": "Pre-emerge test, greenhouse herbicide activity screening", "details": "rated 14 days after application, 0 = no damage, 100 = complete death", "method_in_brief": "as §1"}, "[5]": {"test_system": "velvetleaf (Abutilon theophrasti, ABUTH)", "assay": "Pre-emerge test, greenhouse herbicide activity screening", "details": "rated 14 days after application, 0 = no damage, 100 = complete death", "method_in_brief": "as §1"}, "[6]": {"test_system": "green foxtail (Setaria viridis, SETVI)", "assay": "Pre-emerge test, greenhouse herbicide activity screening", "details": "rated 14 days after application, 0 = no damage, 100 = complete death", "method_in_brief": "as §1"}, "[7]": {"test_system": "ivyleaf morningglory (Ipomoea hederacea, IPOHE)", "assay": "Pre-emerge test, greenhouse herbicide activity screening", "details": "rated 14 days after application, 0 = no damage, 100 = complete death", "method_in_brief": "as §1"}, "[8]": {"test_system": "large crabgrass (Digitaria sanguinalis, DIGSA)", "assay": "Pre-emerge test, greenhouse herbicide activity screening", "details": "rated 14 days after application, 0 = no damage, 100 = complete death", "method_in_brief": "as §1"}, "[9]": {"test_system": "field corn (Zea mays L., var. Dekalb 535, CORN)", "assay": "Pre-emerge test, crop safety", "details": "rated 14 days after application, 0 = no damage, 100 = complete death", "method_in_brief": "(§2)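 Applied at 15–1000 g ai/ha from acetone in 187 l/ha spray volume. Post-emergence applications included 0.25% v/v non-ionic surfactant and reached plants sown 8–21 days before. Pre-emergence applications were incorporated by surface watering. Efficacy or crop damage was rated on a 0–100 scale after 14 days.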"}, "[10]": {"test_system": "upland rice (Oryza sp., var. Tebonnet, RICE)", "assay": "Pre-emerge test, crop safety", "details": "rated 14 days after application, 0 = no damage, 100 = complete death", "method_in_brief": "as §2"}, "[11]": {"test_system": "field corn (Zea mays L., var. Dekalb 535, CORN)", "assay": "Post-emerge test, crop safety", "details": "post-emerge, 14 days after application, rating scale 0-100", "method_in_brief": "as §1"}, "[12]": {"test_system": "upland rice (Oryza sp., var. Tebonnet, RICE)", "assay": "Post-emerge test, crop safety", "details": "post-emerge, 14 days after application, rating scale 0-100", "method_in_brief": "as §1"}, "[13]": {"test_system": "redroot pigweed (Amaranthus retroflexus, AMARE)", "assay": "Pre-emerge test, greenhouse herbicide activity screening", "details": "rated 14 days after application, 0 = no damage, 100 = complete death", "method_in_brief": "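Compounds in acetone were track-sprayed at 187 l/ha, 15–1000 g ai/ha, onto sandy loam pots. Pre-emerge seeds were sown one day before spraying, with surface watering afterwards. Post-emerge plants were at the 2–3 leaf stage and sprayed with 0.25% v/v non-ionic surfactant. Injury was rated 0–100 at 14 days.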"}, "[14]": {"test_system": "sicklepod (Cassia obtusifolia, CASOB)", "assay": "Post-emerge test, greenhouse herbicide activity screening", "details": "post-emerge, 14 days after application, rating scale 0-100", "method_in_brief": "(§3)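 Herbicidal damage is scored 0 (none) to 100 (complete plant death) two weeks after a simulated field spray. Rates span 15–1000 g ai/ha, delivered in acetone at 187 l/ha. For post-emergence treatments, plants have 2–3 leaves and the spray carries 0.25% v/v non-ionic surfactant.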"}, "[15]": {"test_system": "lambsquarters (Chenopodium album, CHEAL)", "assay": "Post-emerge test, greenhouse herbicide activity screening", "details": "post-emerge, 14 days after application, rating scale 0-100", "method_in_brief": "as §3"}, "[16]": {"test_system": "barnyardgrass (Echinochloa crus-galli, ECHCG)", "assay": "Post-emerge test, greenhouse herbicide activity screening", "details": "post-emerge, 14 days after application, rating scale 0-100", "method_in_brief": "as §3"}, "[17]": {"test_system": "redroot pigweed (Amaranthus retroflexus, AMARE)", "assay": "Post-emerge test, greenhouse herbicide activity screening", "details": "post-emerge, 14 days after application, rating scale 0-100", "method_in_brief": "as §3"}, "[18]": {"test_system": "johnsongrass (Sorghum halepense, SORHA)", "assay": "Post-emerge test, greenhouse herbicide activity screening", "details": "post-emerge, 14 days after application, rating scale 0-100", "method_in_brief": "as §3"}, "[19]": {"test_system": "velvetleaf (Abutilon theophrasti, ABUTH)", "assay": "Post-emerge test, greenhouse herbicide activity screening", "details": "post-emerge, 14 days after application, rating scale 0-100", "method_in_brief": "as §3"}, "[20]": {"test_system": "green foxtail (Setaria viridis, SETVI)", "assay": "Post-emerge test, greenhouse herbicide activity screening", "details": "post-emerge, 14 days after application, rating scale 0-100", "method_in_brief": "as §3"}, "[21]": {"test_system": "ivyleaf morningglory (Ipomoea hederacea, IPOHE)", "assay": "Post-emerge test, greenhouse herbicide activity screening", "details": "post-emerge, 14 days after application, rating scale 0-100", "method_in_brief": "as §3"}, "[22]": {"test_system": "large crabgrass (Digitaria sanguinalis, DIGSA)", "assay": "Post-emerge test, greenhouse herbicide activity screening", "details": "post-emerge, 14 days after application, rating scale 0-100", "method_in_brief": "as §3"}}, "data": [{"smiles": "COc1c(Cl)cc(F)c(-n2c(=O)cc(C(F)(F)F)n(C)c2=O)c1NC(=O)COc1ccccc1", "note": "[2-119]", "values": [{"measurement": "Pre-emerge Herbicidal Activity, phytotoxicity rating (0-100), CASOB", "setting": "[1]; 63 g ai/ha", "value": 60}, {"measurement": "Pre-emerge Herbicidal Activity, phytotoxicity rating (0-100), CASOB", "setting": "[1]; 250 g ai/ha", "value": 90}, {"measurement": "Pre-emerge Herbicidal Activity, phytotoxicity rating (0-100), CHEAL", "setting": "[2]; 63 g ai/ha", "value": 100}, {"measurement": "Pre-emerge Herbicidal Activity, phytotoxicity rating (0-100), CHEAL", "setting": "[2]; 250 g ai/ha", "value": 100}, {"measurement": "Pre-emerge Herbicidal Activity, phytotoxicity rating (0-100), ECHCG", "setting": "[3]; 63 g ai/ha", "value": 70}, {"measurement": "Pre-emerge Herbicidal Activity, phytotoxicity rating (0-100), ECHCG", "setting": "[3]; 250 g ai/ha", "value": 95}, {"measurement": "Pre-emerge Herbicidal Activity, phytotoxicity rating (0-100), SORHA", "setting": "[4]; 63 g ai/ha", "value": 75}, {"measurement": "Pre-emerge Herbicidal Activity, phytotoxicity rating (0-100), SORHA", "setting": "[4]; 250 g ai/ha", "value": 100}, {"measurement": "Pre-emerge Herbicidal Activity, phytotoxicity rating (0-100), ABUTH", "setting": "[5]; 63 g ai/ha", "value": 100}, {"measurement": "Pre-emerge Herbicidal Activity, phytotoxicity rating (0-100), ABUTH", "setting": "[5]; 250 g ai/ha", "value": 100}, {"measurement": "Pre-emerge Herbicidal Activity, phytotoxicity rating (0-100), SETVI", "setting": "[6]; 63 g ai/ha", "value": 100}, {"measurement": "Pre-emerge Herbicidal Activity, phytotoxicity rating (0-100), SETVI", "setting": "[6]; 250 g ai/ha", "value": 100}, {"measurement": "Pre-emerge Herbicidal Activity, phytotoxicity rating (0-100), IPOHE", "setting": "[7]; 63 g ai/ha", "value": 70}, {"measurement": "Pre-emerge Herbicidal Activity, phytotoxicity rating (0-100), IPOHE", "setting": "[7]; 250 g ai/ha", "value": 100}, {"measurement": "Pre-emerge Herbicidal Activity, phytotoxicity rating (0-100), DIGSA", "setting": "[8]; 63 g ai/ha", "value": 70}, {"measurement": "Pre-emerge Herbicidal Activity, phytotoxicity rating (0-100), DIGSA", "setting": "[8]; 250 g ai/ha", "value": 100}, {"measurement": "Pre-emerge phytotoxicity rating (0-100), crop damage, CORN", "setting": "[9]; 63 g ai/ha", "value": 20}, {"measurement": "Pre-emerge phytotoxicity rating (0-100), crop damage, CORN", "setting": "[9]; 250 g ai/ha", "value": 90}, {"measurement": "Pre-emerge phytotoxicity rating (0-100), crop damage, RICE", "setting": "[10]; 63 g ai/ha", "value": 70}, {"measurement": "Pre-emerge phytotoxicity rating (0-100), crop damage, RICE", "setting": "[10]; 250 g ai/ha", "value": 100}, {"measurement": "phytotoxicity rating CORN", "setting": "[11]; 63 g ai/ha", "value": 70}, {"measurement": "phytotoxicity rating CORN", "setting": "[11]; 250 g ai/ha", "value": 90}, {"measurement": "phytotoxicity rating RICE", "setting": "[12]; 63 g ai/ha", "value": 60}, {"measurement": "phytotoxicity rating RICE", "setting": "[12]; 250 g ai/ha", "value": 90}, {"measurement": "Pre-emerge Herbicidal Activity, phytotoxicity rating (0-100), AMARE", "setting": "[13]; 63 g ai/ha", "value": 100}, {"measurement": "Pre-emerge Herbicidal Activity, phytotoxicity rating (0-100), AMARE", "setting": "[13]; 250 g ai/ha", "value": 100}, {"measurement": "phytotoxicity rating CASOB", "setting": "[14]; 63 g ai/ha", "value": 30}, {"measurement": "phytotoxicity rating CASOB", "setting": "[14]; 250 g ai/ha", "value": 60}, {"measurement": "phytotoxicity rating CHEAL", "setting": "[15]; 63 g ai/ha", "value": 80}, {"measurement": "phytotoxicity rating CHEAL", "setting": "[15]; 250 g ai/ha", "value": 100}, {"measurement": "phytotoxicity rating ECHCG", "setting": "[16]; 63 g ai/ha", "value": 40}, {"measurement": "phytotoxicity rating ECHCG", "setting": "[16]; 250 g ai/ha", "value": 90}, {"measurement": "phytotoxicity rating AMARE", "setting": "[17]; 63 g ai/ha", "value": 90}, {"measurement": "phytotoxicity rating AMARE", "setting": "[17]; 250 g ai/ha", "value": 100}, {"measurement": "phytotoxicity rating SORHA", "setting": "[18]; 63 g ai/ha", "value": 60}, {"measurement": "phytotoxicity rating SORHA", "setting": "[18]; 250 g ai/ha", "value": 90}, {"measurement": "phytotoxicity rating ABUTH", "setting": "[19]; 63 g ai/ha", "value": 100}, {"measurement": "phytotoxicity rating ABUTH", "setting": "[19]; 250 g ai/ha", "value": 100}, {"measurement": "phytotoxicity rating SETVI", "setting": "[20]; 63 g ai/ha", "value": 40}, {"measurement": "phytotoxicity rating SETVI", "setting": "[20]; 250 g ai/ha", "value": 90}, {"measurement": "phytotoxicity rating IPOHE", "setting": "[21]; 63 g ai/ha", "value": 100}, {"measurement": "phytotoxicity rating IPOHE", "setting": "[21]; 250 g ai/ha", "value": 100}, {"measurement": "phytotoxicity rating DIGSA", "setting": "[22]; 63 g ai/ha", "value": 30}, {"measurement": "phytotoxicity rating DIGSA", "setting": "[22]; 250 g ai/ha", "value": 80}]}]}
